Reference: ChEMBL document CHEMBL1201862, “PubChem BioAssay data set” (2004)
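Interpolation was linear, between the two tested concentrations surrounding the appropriate level; five concentrations were tested over 48 hours in 96-well plates. At the GI50, growth is halved.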 Active and inactive are the calls of the source. Rule as the data show it: active = GI50 up to about 1.1 µM and inactive = higher.

Assays:
Experiment in all cases: DTP human tumour cell line panel, 48 h
CCRF-CEM = test system: CCRF-CEM
COLO 205 = test system: COLO 205
HCC 2998 = test system: HCC 2998
HL-60 = test system: HL-60
K562 = test system: K562
KM12 = test system: KM12
M14 = test system: M14
MCF7 = test system: MCF7
MDA-MB-231 = test system: MDA-MB-231
MDA-MB-435 = test system: MDA-MB-435
MDA-N = test system: MDA-N
Malme-3M = test system: Malme-3M
NCI-H460 = test system: NCI-H460
NCI-H522 = test system: NCI-H522
OVCAR-5 = test system: OVCAR-5
PC-3 = test system: PC-3
SK-MEL-2 = test system: SK-MEL-2
SR = test system: SR
TK-10 = test system: TK-10
UACC-62 = test system: UACC-62

Measured: GI50

O=C(O)CCC(NC(=O)c1ccc(Nc2nc3cc(C(F)(F)F)ccc3nc2C(=O)O)cc1)C(=O)O (stereo not given)
inactive: CCRF-CEM > 100 µM | COLO 205 > 100 µM | HCC 2998 > 100 µM | HL-60 > 100 µM | K562 > 100 µM | KM12 > 100 µM | M14 > 100 µM | MCF7 > 100 µM | MDA-MB-231 > 100 µM | MDA-MB-435 > 100 µM | MDA-N > 100 µM | Malme-3M > 100 µM | NCI-H460 > 100 µM | NCI-H522 > 100 µM | OVCAR-5 > 100 µM | PC-3 > 100 µM | SK-MEL-2 > 100 µM | SR > 100 µM | TK-10 > 100 µM | UACC-62 > 100 µM
